One assay addresses hPDE10A2 (Homo sapiens, UniProt Q9Y233). Nature of the assay: biochemical. Conditions: for IC50: 60 nM cAMP substrate, read-out: hPDE10A2 pIC50 (converted); for Emax: read-out: hPDE10A2 Emax. On the procedure:
Rat recombinant PDE10A (rPDE10A2) was expressed in Sf9 cells using a recombinant rPDE10A baculovirus construct. Cells were harvested after 48 h of infection and the rPDE10A protein was purified by metal chelate chromatography on Ni-sepharose 6FF. Tested compounds were dissolved and diluted in 100% DMSO to a concentration 100 fold of the final concentration in the assay. Human recombinant PDE10A […] was expressed in Sf9 cells using a recombinant hPDE10A baculovirus that was made and amplified in house. Cells were harvested after 72 h of infection and the hPDE10A protein was purified by metal chelate chromatography on Ni-sepharose. Compound dilutions (0.4 μl) were added in 384 well plates to 20 μl of incubation buffer (50 mM Tris pH 7.8, 8.3 mM MgCl2, 1.7 mM EGTA). […] of rPDE10A or hPDE10A enzyme in incubation buffer was added and the reaction was started by addition of 10 μl substrate to a final concentration of 60 nM cAMP and 0.008 μCi ^3H-cAMP. The reaction was incubated for 60 minutes at room temperature. […] After sedimentation of the beads during 30 minutes the radioactivity was measured in a Perkin Elmer Topcount scintillation counter and results were expressed as cpm. For blanc values the enzyme was omitted from the reaction and replaced by incubation buffer. Control values were obtained by addition of a final concentration of 1% DMSO instead of compound.

The target of the next assay is T1, hPDE2A (Homo sapiens, UniProt O00408).
T1 construct: made in house; host or cells: Sf9 insect cells (baculovirus)
The experiment in a line: In vitro assay PDE2A (SPA, 3H-cGMP). Format: biochemical. Conditions: for Emax: read-out: hPDE2A Emax. The procedure: Human recombinant PDE2A (hPDE2A) was expressed in Sf9 cells using a recombinant rPDE10A baculovirus construct. Cells were harvested after 48 h of infection and the hPDE2A protein was purified by metal chelate chromatography on Ni-sepharose 6FF. Tested compounds were dissolved and diluted in 100% DMSO to a concentration 100 fold of the final concentration in the assay. Compound dilutions (0.4 μl) were added in 384 well plates to 20 μl of incubation buffer (50 mM Tris pH 7.8, 8.3 mM MgCl2, 1.7 mM EGTA). 10 μl of hPDE2A enzyme in incubation buffer was added and the reaction was started by addition of 10 μl substrate to a final concentration of 10 μM cGMP and 0.01 μCi ^3H-cGMP. The reaction was incubated for 45 minutes at room temperature. […] After sedimentation of the beads during 30 minutes the radioactivity was measured in a Perkin Elmer Topcount scintillation counter and results were expressed as cpm. For blanc values the enzyme was omitted from the reaction and replaced by incubation buffer. Control values were obtained by addition of a final concentration of 1% DMSO instead of compound.

Another assay has as its system hPDE3B. Nature of the assay: In vitro assay PDE3 (SPA, 3H-cAMP). Format: biochemical, human. Conditions: for hPDE3B pIC50: 0.4 μM cAMP substrate. Details: hPDE3B Emax: unit not given here.

Some results are limits rather than exact numbers.

The values below come from patent US11053248B2, “[1,2,4]triazolo[1,5-a]pyrimidine compounds as PDE2 inhibitors” (Janssen Pharmaceutica NV, priority 2016, dated 2021).

What is called Emax is the size of the effect at its maximum, as opposed to the concentration needed.

T1 sequence (O00408 whole entry): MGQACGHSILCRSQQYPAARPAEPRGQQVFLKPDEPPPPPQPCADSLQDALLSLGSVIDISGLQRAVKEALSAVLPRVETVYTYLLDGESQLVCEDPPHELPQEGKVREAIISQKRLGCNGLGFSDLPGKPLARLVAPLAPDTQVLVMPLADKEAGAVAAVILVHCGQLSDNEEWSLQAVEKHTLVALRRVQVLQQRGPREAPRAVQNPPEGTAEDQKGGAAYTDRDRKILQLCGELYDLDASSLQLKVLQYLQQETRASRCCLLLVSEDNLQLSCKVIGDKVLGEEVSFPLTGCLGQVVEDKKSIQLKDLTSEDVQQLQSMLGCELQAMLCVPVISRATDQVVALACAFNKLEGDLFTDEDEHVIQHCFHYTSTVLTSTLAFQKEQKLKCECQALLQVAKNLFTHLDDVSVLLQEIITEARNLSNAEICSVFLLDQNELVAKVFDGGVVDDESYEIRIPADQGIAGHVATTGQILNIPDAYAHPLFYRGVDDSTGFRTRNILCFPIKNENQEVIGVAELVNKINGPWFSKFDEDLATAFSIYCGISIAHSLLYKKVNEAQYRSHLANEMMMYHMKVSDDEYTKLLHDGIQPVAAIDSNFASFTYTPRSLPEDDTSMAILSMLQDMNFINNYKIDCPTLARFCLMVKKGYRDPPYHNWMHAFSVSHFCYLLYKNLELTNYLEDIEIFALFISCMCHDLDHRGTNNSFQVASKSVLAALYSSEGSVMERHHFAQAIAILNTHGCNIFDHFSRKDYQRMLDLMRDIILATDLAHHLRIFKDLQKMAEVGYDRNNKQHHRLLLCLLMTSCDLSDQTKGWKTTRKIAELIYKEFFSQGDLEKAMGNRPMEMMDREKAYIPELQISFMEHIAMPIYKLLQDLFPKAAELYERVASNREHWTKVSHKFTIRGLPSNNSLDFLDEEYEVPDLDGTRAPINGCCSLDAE
Sequence of hPDE10A2 (Q9Y233 267-1055): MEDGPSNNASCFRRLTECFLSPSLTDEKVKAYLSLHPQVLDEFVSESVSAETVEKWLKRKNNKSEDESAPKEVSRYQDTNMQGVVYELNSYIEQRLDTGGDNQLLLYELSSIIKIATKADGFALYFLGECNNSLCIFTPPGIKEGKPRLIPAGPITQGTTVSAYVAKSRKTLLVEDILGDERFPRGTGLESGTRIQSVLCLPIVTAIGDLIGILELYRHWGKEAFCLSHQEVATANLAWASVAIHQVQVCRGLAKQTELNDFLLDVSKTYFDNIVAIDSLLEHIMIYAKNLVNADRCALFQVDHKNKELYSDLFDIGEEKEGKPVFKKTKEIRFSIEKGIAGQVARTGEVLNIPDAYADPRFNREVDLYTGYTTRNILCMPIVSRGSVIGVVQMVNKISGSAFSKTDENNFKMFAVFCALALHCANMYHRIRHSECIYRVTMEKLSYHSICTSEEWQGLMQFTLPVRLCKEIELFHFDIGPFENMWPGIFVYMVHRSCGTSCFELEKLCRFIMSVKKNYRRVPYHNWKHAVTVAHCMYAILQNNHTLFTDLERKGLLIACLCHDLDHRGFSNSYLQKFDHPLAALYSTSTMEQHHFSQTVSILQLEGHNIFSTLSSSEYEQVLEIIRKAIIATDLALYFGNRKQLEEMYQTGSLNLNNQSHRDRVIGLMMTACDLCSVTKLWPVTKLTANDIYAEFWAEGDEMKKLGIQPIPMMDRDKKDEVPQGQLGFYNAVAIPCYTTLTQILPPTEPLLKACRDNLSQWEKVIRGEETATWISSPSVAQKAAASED

`Cc1cc([C@@H]2CN(c3nccc4ccccc34)CC[C@H]2C)n2ncnc2n1` [Compound 15]: at hPDE10A2, the IC50 was 0.162 µM and the Emax worked out at 98%. Also, on hPDE2A, the IC50 is 0.0174 µM and the Emax was determined as 100%. In addition, in the assay with hPDE3B, the “hPDE3B Emax” value came out at 69 and the “hPDE3B pIC50” value is reported as 5.21.

Consider `COc1cnc(N2CC[C@@H](C)[C@H](c3cc(C(F)F)nc4ncnn34)C2)c2ccccc12` [Compound 8], for which, on hPDE10A2, the IC50 was 1.02 µM and the Emax is 97%. At hPDE2A, the IC50 is 0.0107 µM and the Emax was 101%. Moreover, in the assay with hPDE3B, the “hPDE3B Emax” value is 73 and the “hPDE3B pIC50” value was 5.22.

Regarding `C[C@@H]1CCN(c2ccc(C(F)(F)F)cn2)C[C@H]1c1cc(C(F)F)nc2ncnn12` [Compound 38], on hPDE10A2, the IC50 is 0.759 µM and the Emax is 92%. Also, at hPDE2A, the IC50 was 0.17 µM and the maximal response (Emax) is 99%. Besides, in the assay on hPDE3B, the “hPDE3B Emax” value is on record as 49 and the “hPDE3B pIC50” value is listed as below 5.

`C[C@@H]1CCN(c2ncccc2Cl)C[C@H]1c1cc(C(F)F)nc2ncnn12` [Compound 28]: on hPDE10A2, the IC50 is 0.692 µM and the Emax was 90%. At hPDE2A, the IC50 was 0.11 µM and the Emax came out at 99%. Besides, in the assay with hPDE3B, the “hPDE3B Emax” value is recorded as 50 and the “hPDE3B pIC50” value turned out to be 4.96.

For `Cc1cccc(N2CC[C@@H](C)C(c3cc(C(F)F)nc4ncnn34)C2)n1` (stereo partly drawn) [Compound 39], at hPDE10A2, the IC50 was 1.29 µM and the Emax was determined as 87%. Also, on hPDE2A, the IC50 is 0.145 µM and the Emax stood at 99%. In the assay with hPDE3B, the “hPDE3B Emax” value stood at 58 and the “hPDE3B pIC50” value is reported as 5.13.

In the case of `FC(F)c1cc([C@H]2CC[C@H]3CC[C@@H]2N3c2c(Br)ccc3ccncc23)n2ncnc2n1` [Compound 5], at hPDE10A2, the IC50 was 0.427 µM and the Emax amounted to 97%. On hPDE2A, the IC50 is 0.00676 µM and the Emax was found to be 100%. In the assay on hPDE3B, the “hPDE3B Emax” value came out at 76 and the “hPDE3B pIC50” value is 5.27.

Take `C[C@@H]1CCN(c2ncc(C(F)(F)F)cc2Br)C[C@H]1c1cc(C(F)F)nc2ncnn12` [Compound 19]: on hPDE10A2, the IC50 is 0.417 µM and the Emax came out at 96%. Also, on hPDE2A, the IC50 is 0.0302 µM and the Emax worked out at 100%. For the same molecule, in the assay on hPDE3B, the “hPDE3B Emax” value amounted to 38 and the “hPDE3B pIC50” value is below 5.

As for `C[C@@H]1CCN(c2ccc(Cl)cn2)C[C@H]1c1cc(C(F)F)nc2ncnn12` [Compound 25], at hPDE10A2, the IC50 was 0.692 µM and the Emax was determined as 92%. Besides, on hPDE2A, the IC50 was 0.0832 µM and the Emax is 101%. Further, in the assay on hPDE3B, the “hPDE3B Emax” value stood at 45 and the “hPDE3B pIC50” value is below 5.

Consider `CCCCOc1ccnc(N2CC[C@@H](C)[C@H](c3cc(C(F)F)nc4ncnn34)C2)c1` [Compound 11], for which, at hPDE10A2, the IC50 was 0.355 µM and the Emax came out at 97%. Also, at hPDE2A, the IC50 is 0.0138 µM and the Emax is 99%. Also, in the assay on hPDE3B, the “hPDE3B Emax” value is on record as 99 and the “hPDE3B pIC50” value was determined as 6.02.

For the molecule `C[C@@H]1CCN(c2nccc3ccc(F)cc23)C[C@H]1c1cc(C(F)F)nc2ncnn12` [Compound 14], at hPDE10A2, the IC50 was 0.389 µM and the Emax worked out at 98%. Further, at hPDE2A, the IC50 was 0.017 µM and the Emax is 101%. In the assay with hPDE3B, the “hPDE3B Emax” value was determined as 62 and the “hPDE3B pIC50” value stood at 5.29.

As to `CC(C)Oc1cccnc1N1CC[C@@H](C)[C@H](c2cc(C(F)F)nc3ncnn23)C1.Cl` [Compound 31], at hPDE10A2, the IC50 is 1.29 µM and the Emax was determined as 91%. For the same molecule, on hPDE2A, the IC50 is 0.257 µM and the Emax was 81%. Further, in the assay with hPDE3B, the “hPDE3B Emax” value is 27 and the “hPDE3B pIC50” value is recorded as below 5.

Consider `C[C@@H]1CCN(c2cccc(C(F)(F)F)n2)C[C@H]1c1cc(C(F)F)nc2ncnn12` [Compound 26], for which, on hPDE10A2, the IC50 is 0.457 µM and the Emax came out at 95%. Also, on hPDE2A, the IC50 is 0.0912 µM and the Emax was determined as 99%. For the same molecule, in the assay with hPDE3B, the “hPDE3B Emax” value was determined as 80 and the “hPDE3B pIC50” value is on record as 5.43.

On to `C[C@@H]1CCN(c2ccc(F)cn2)C[C@H]1c1cc(C(F)F)nc2ncnn12` [Compound 36], for which, on hPDE10A2, the IC50 was 1.51 µM and the Emax was found to be 84%. Besides, on hPDE2A, the IC50 was 0.245 µM and the Emax came to 100%. Besides, in the assay with hPDE3B, the “hPDE3B Emax” value stood at 56 and the “hPDE3B pIC50” value is 5.01.

On to `C[C@@H]1CCN(c2cccc(C#N)n2)C[C@H]1c1cc(C(F)F)nc2ncnn12` [Compound 24], for which, at hPDE10A2, the IC50 is 0.575 µM and the Emax was determined as 94%. Also, at hPDE2A, the IC50 was 0.0794 µM and the Emax is 100%. For the same molecule, in the assay with hPDE3B, the “hPDE3B Emax” value is listed as 68 and the “hPDE3B pIC50” value is 5.17.

Turning to `COc1ccnc(N2CC[C@@H](C)[C@H](c3cc(C(F)F)nc4ncnn34)C2)c1OC.Cl` [Compound 33], at hPDE10A2, the IC50 is 1.7 µM and the maximal effect (Emax) stood at 82%. On hPDE2A, the IC50 was 0.166 µM and the Emax came to 89%. Also, in the assay with hPDE3B, the “hPDE3B Emax” value came out at 40 and the “hPDE3B pIC50” value is below 5.

As for `CC(C)Oc1cccnc1N1CC[C@H](C)[C@@H](c2cc(C(F)F)nc3ncnn23)C1.Cl` [Compound 34], at hPDE10A2, the IC50 was above 10 µM and the Emax was 33%. On hPDE2A, the IC50 is 2.4 µM and the maximal response (Emax) stood at 30%. Also, in the assay on hPDE3B, the “hPDE3B Emax” value worked out at 2 and the “hPDE3B pIC50” value was below 5.
